Data set [1] in a line: Prediction of liver cell hypertrophy using SVM from post-translational modification data. Details: species or system rat.
For another data set, the system named is liver cell. The conditions noted are these: rat, in vivo.
The conditions of data set [2]: in vivo; cited from earlier work.
The next data set has as its system rat liver protein. Put plainly: Two-dimensional gel electrophoresis of liver proteins after 28-day oral administration: difference of log2(αx/αc) between spots derived from one protein. The class given is in vivo. The conditions noted are these: oral 28 days. As to the method:
5-Weeks old male rats (F344, SPF strain) obtained from Charles River Laboratories Japan Inc. were divided into groups each consisting of three rats. To the rats of each chemical dosed group was forcibly administered orally a solution obtained by dissolving one of the chemicals shown in Tables 1 to 3, and to the rats of a vehicle control group was forcibly administered orally only a vehicle. The administration was conducted once a day for 28 days. On the 29th day from the start of administration, the liver of each rat was collected. A fragment was cut out from each liver and stored at −20° C. The protein collected from each rat was determined quantitatively by the Bradford method. Then, to the comparative sample collected from the chemical dosed group, the control sample collected from the vehicle control group, and a pool sample (which was a mixture of the comparative sample and the control sample) were added, at 0° C., Cy5, Cy3 and Cy2 (DMF solution, 1 ml) each of 200 pmol per […] of protein, and a labeling reaction was allowed to take place on ice for 30 minutes. After the completion of the reaction, an excessive amount of a Lysine solution (10 mM Lysis buffer solution, 1 ml) was added, followed by storage for 10 minutes to complete the reaction. Further, a x2 sample buffer [8 M urea, 4% (w/v) CHAPS, 20 mg/ml DTT, 2% (v/v) Pharmalytes] of same volume was added, followed by storage on ice for 10 minutes.
Then, the mixture of the resulting samples or each resulting sample was individually subjected to two-dimensional gel electrophoresis.
First-dimensional electrophoresis was conducted in Multiphor II (GE Helthcare Uk Ltd. Buckinghamshire, UK) using IPG (Immobilized pH Gradient) Strips (24 cm, pI3-10L) (GE Helthcare UK Ltd. Buckinghamshire, UK). A sample ([…] of protein) was added from a cup loading holder. Focussing was conducted by 40 kVh in total. After the electrophoresis, equilibration was made for 10 minutes each using a solution A obtained by adding 0.25% (w/v) of DTT to an equilibrating solution (50 mM Tris, pH 8.8, 6 M urea, 30% glycerol, 2% SDS) and a solution B obtained by adding 4.5% (w/v) of iodoacetamide to the equilibrating solution. Successively, second-dimensional electrophoresis was conducted in an Ettan DALT II system (GE Helthcare UK Ltd. Buckinghamshire, UK) using a self-made 12% uniform gel sandwiched between low-fluorescent glasses. Migration was conducted at 3 W (15° C.) overnight.
For each gel after migration, image capture was immediately conducted using Master Imager (GE Helthcare UK Ltd. Buckinghamshire, UK), at a wavelength corresponding to each Cy. The excitation wavelengths of Cy5, Cy3 and Cy2 were set at 625 nm, 480 nm and 425 nm, respectively, and their fluorescence wavelengths were set at 680 nm, 540 nm and 480 nm, respectively.
In the case of the sample obtained by mixing before electrophoresis, the recognition of spots of captured image and the quantitative determination and comparison between Cys in one gel were conducted using Decyder-DIA Soft (GE Helthcare UK Ltd. Buckinghamshire, UK). The matching of spots with the reference map of rat liver protein (2-D data base formed in-house by identifying rat liver 724 spots) was conducted using Decyder-BVA soft (GE Helthcare UK Ltd. Buckinghamshire, UK). When each sample after Cy labeling was independently subjected to electrophoresis, the quantitative determination of each spot and the matching of spots were conducted using PDQuest (Bio-Rad Laboratories, Inc.).
For the spots of the 127 proteins and their modified proteins, there was calculated a base 2 logarithm [log2(αx/αc)] of the ratio (αx/αc) of the expression amount (αx) of the comparative sample and the expression amount (αc) of the control sample. Then, a difference in logarithms was calculated between spots derived from one protein. The calculation of difference in logarithms was made for all combinations of spots derived from one protein. […]

[3] abbreviates: SVM prediction of liver cell hypertrophy, training set, top-ranked 20 sets of post-translational modification data.

Read-outs that look alike come from different tables or passages of the source.

In the case of `CCN(CC)N=O` [Diethylnitrosamine], in data set [1], the Prediction result is on record as −1 CORRECT. Besides, in the data set with liver cell, the “Finding of hepatocyte hypertrpy” value is given as “−” and the “pathology of liver cell hypertrophy in the liver” value (from here on “pathology”) is reported as “no pathology of liver cell hypertrophy was seen”. The Carcinogenicity entry in data set [2] was “+”.

On to `c1ccoc1` [Furan], for which the Prediction result in data set [1] is listed as −1. Besides, in the data set on liver cell, the “Finding of hepatocyte hypertrpy” value is “+” and the “pathology” value was “pathology of liver cell hypertrophy was seen”. In addition, the Carcinogenicity entry in data set [2] is listed as “+”.

In the case of `IC(I)I` [Iodoform], the Prediction result in data set [1] (setting [3]) was “+1 CORRECT”. In the data set with liver cell, the “Finding of hepatocyte hypertrpy” value is “+”. Also, the Carcinogenicity entry in data set [2] was “−”.

As for `O=NN1CCOCC1` [N-nitrosomorpholine], the “Difference of log2(αx/αc)” value was determined as 1.824 with rat liver protein (ATP synthase alpha chain, spots 1064-1096, absolute value); 1.038 in the data set with rat liver protein (Carbonate dehydrogenase III, spots 2098-2113, absolute value); 1.451 in the data set with rat liver protein (Cytoskeleton I type keratin-19, spots 1174-1447, absolute value); 1.344 in the data set with rat liver protein (Cytoskeleton II type keratin-8, spots 1068-1481, absolute value); 1.910 in the data set on rat liver protein (Heat shock protein 60 kDa, spots 941-974, absolute value); 0.948 in the data set on rat liver protein (Hydroxyglutaryl-CoA synthase, spots 1215-1216, absolute value). Moreover, the “Difference of log2(αx/αc)” value with rat liver protein (MAWD binding protein, spots 2032-2036, absolute value) was 1.256; with rat liver protein (Non-muscle type caldesmon, spots 628-654, absolute value), 1.618; in the data set with rat liver protein (RIKEN cDNA 0610010D20, spots 1708-1753, absolute value) it was 1.349; with rat liver protein (Transketorase, spots 789-813, absolute value), 1.074. Also, in data set [1], the Prediction result is recorded as −1 CORRECT. For the same compound, in the data set on liver cell, the “Finding of hepatocyte hypertrpy” value was “−”. Besides, the “pathology” value with liver cell is recorded as “no pathology of liver cell hypertrophy was seen”. Besides, the Carcinogenicity result in data set [2] is on record as “+”.

Take `c1ccc2ncccc2c1` [Quinoline]: the Prediction result in data set [1] (setting [3]) is −1 CORRECT. For the same compound, in the data set on liver cell, the “Finding of hepatocyte hypertrpy” value is on record as “−” and the “pathology” value was “no pathology of liver cell hypertrophy was seen”. The Carcinogenicity result in data set [2] was “+”.

For `C=CCc1ccc2c(c1)OCO2` [Safrole], the Prediction result in data set [1] is “+1 CORRECT”. Further, in the data set on liver cell, the “Finding of hepatocyte hypertrpy” value is reported as “+” and the “pathology” value was “pathology of liver cell hypertrophy was seen”. Besides, the Carcinogenicity result in data set [2] is “+”.

As for `ClC=C(Cl)Cl` [Trichloroethylene], in data set [1], the Prediction result is recorded as −1 CORRECT. Moreover, in the data set with liver cell, the “Finding of hepatocyte hypertrpy” value is on record as “−” and the “pathology” value is “no pathology of liver cell hypertrophy was seen”. Moreover, in data set [2], the Carcinogenicity entry is “+”.

Turning to `Cl[C@H]1[C@H](Cl)[C@H](Cl)[C@@H](Cl)[C@H](Cl)[C@H]1Cl` [α-Hexachlorocyclohexane], the Prediction result in data set [1] is “+1 CORRECT”. In the data set with liver cell, the “Finding of hepatocyte hypertrpy” value is listed as “+” and the “pathology” value is “pathology of liver cell hypertrophy was seen”. In data set [2], the Carcinogenicity entry was “+”.

These data come from patent publication US20090134028A1, “Method of Estimating Effect of Test Chemical on Living Organisms” (Chemicals Evaluation and Research Institute, priority 2005, published 2009).
